Columns and labels:
Human M3 receptor = target: T1, Human M3 receptor (Homo sapiens, UniProt P20309); assay: M3 Receptor Radioligand Binding Assay; details: human M3 receptor membranes, [3H]-N-methyl scopolamine; read-out: M3 binding affinity (Ki class)
T1 construct: purchased Perkin Elmer
Procedure: Biological Characterization M3 Receptor Radioligand Binding Assay
The assay was carried out in 96-well polypropylene plates in a volume of 250 ul. […] The final assay concentration of DMSO was 0.5% (v/v). The plates were sealed and incubated for 2 h at room temperature on an orbital shaker (slow speed). Membranes were harvested onto 96-well unifilter GF/C filter plates pre-treated with 0.5% polyethyleneimine (v/v), using a filter manifold, washed four times with 200 ul of assay buffer. The plates were dried before addition of 50 μl of microscint-0, sealed then read in a Trilux Microbeta scintillation counter.

Human β2 adrenoceptor = target: T2, Human β2 adrenoceptor (Homo sapiens, UniProt P07550); assay: β2 Adrenoceptor Radioligand Binding Assay; details: human β2 adrenoceptor membranes, 125-I Cyanopindolol; read-out: B2 binding affinity (Ki class)
T2 construct: purchased Perkin Elmer
T2 sequence (P07550 whole entry): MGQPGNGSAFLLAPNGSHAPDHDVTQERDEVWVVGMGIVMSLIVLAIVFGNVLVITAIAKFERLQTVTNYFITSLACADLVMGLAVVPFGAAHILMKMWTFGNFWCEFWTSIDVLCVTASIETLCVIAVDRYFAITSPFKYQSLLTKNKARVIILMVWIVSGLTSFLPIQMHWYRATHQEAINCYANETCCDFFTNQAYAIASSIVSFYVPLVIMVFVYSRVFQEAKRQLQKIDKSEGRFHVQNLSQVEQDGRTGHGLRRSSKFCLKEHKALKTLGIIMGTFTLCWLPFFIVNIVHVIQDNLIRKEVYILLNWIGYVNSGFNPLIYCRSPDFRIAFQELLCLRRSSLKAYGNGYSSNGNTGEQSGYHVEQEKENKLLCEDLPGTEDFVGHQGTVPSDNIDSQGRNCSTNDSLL
Procedure: β2 Adrenoceptor Radioligand Binding Assay
The assay was carried out in 96-well polypropylene plates in a volume of 200 ul. The assay buffer used was 25 mM HEPES, 0.5% BSA (w/v), 1 mM EDTA, 0.02% ascorbic acid (v/v), (pH 7.4). The final assay concentration of DMSO was 0.5% (v/v). The plates were sealed and incubated for 1 h at room temperature on an orbital shaker (slow speed). Membranes were harvested onto 96-well unifilter GF/C filter plates pre-treated with 0.5% polyethyleneimine (v/v), using a filter manifold, washed six times with 200 ul of wash buffer containing 10 mM HEPES and 500 mM NaCl. The plates were dried before addition of 50 μl of microscint-0, sealed then read in a Trilux Microbeta scintillation counter. IC50 values are determined from competition curves using a non-linear curve fitting program. Ki values were calculated from IC50 values by the Cheng and Prusoff equation.

T1 sequence (P20309 whole entry): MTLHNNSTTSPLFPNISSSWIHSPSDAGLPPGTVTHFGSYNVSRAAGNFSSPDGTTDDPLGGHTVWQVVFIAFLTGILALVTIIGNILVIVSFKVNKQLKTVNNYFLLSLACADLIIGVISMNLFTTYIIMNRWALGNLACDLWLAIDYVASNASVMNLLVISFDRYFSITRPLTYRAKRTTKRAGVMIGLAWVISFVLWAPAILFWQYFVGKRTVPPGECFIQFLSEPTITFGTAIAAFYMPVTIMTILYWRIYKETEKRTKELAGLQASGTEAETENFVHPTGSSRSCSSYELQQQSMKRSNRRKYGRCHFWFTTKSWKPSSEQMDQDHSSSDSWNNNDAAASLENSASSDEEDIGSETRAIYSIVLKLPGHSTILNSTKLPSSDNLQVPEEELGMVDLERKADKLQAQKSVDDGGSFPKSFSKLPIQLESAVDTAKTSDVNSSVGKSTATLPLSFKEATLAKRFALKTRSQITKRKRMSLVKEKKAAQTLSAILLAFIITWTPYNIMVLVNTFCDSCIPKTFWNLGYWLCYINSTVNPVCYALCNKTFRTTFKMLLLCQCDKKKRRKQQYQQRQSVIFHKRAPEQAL

SMILES | Ki (Human M3 receptor) [nM] | Ki (Human β2 adrenoceptor) [nM]
O=C(c1ccc(OCCCCCNC[C@H](O)c2ccc(O)c3[nH]c(=O)ccc23)cc1)N1CCC(C(=O)O[C@H]2CN3CCC2CC3)(c2ccccc2)CC1 [Compound 1, (R)-Quinuclidin-3-yl 1-(4-((5-(((R)-2-hydroxy-2-(8-hydroxy-2-oxo-1,2-dihydroquinolin-5-yl)ethyl)amino)pentyl)oxy)benzoyl)-4-phenylpiperidine-4-carboxylate] | < 1 | < 1
O=C(c1ccc(OCCCCCNC[C@H](O)c2ccc(O)c3[nH]c(=O)ccc23)cc1)N1CC(C(=O)O[C@H]2CN3CCC2CC3)(c2ccccc2)C1 [Compound 1A, (R)-Quinuclidin-3-yl 1-(4-((5-(((R)-2-hydroxy-2-(8-hydroxy-2-oxo-1,2-dihydroquinolin-5-yl)ethyl)amino)pentyl)oxy)benzoyl)-3-phenylazetidine-3-carboxylate] | 1 to 10 | < 1
O=C(c1cccc(OCCCCCNC[C@H](O)c2ccc(O)c3[nH]c(=O)ccc23)c1)N1CCC(C(=O)O[C@H]2CN3CCC2CC3)(c2ccccc2)CC1 [Compound 2, (R)-Quinuclidin-3-yl 1-(3-((5-(((R)-2-hydroxy-2-(8-hydroxy-2-oxo-1,2-dihydroquinolin-5-yl)ethyl)amino)pentyl)oxy)benzoyl)-4-phenylpiperidine-4-carboxylate] | 1 to 10 | < 1
O=C(c1ccc(OCCCCCCNC[C@H](O)c2ccc(O)c3[nH]c(=O)ccc23)cc1)N1CC(C(=O)O[C@H]2CN3CCC2CC3)(c2ccccc2)C1 [Compound 2A, (R)-Quinuclidin-3-yl 1-(4-((6-(((R)-2-hydroxy-2-(8-hydroxy-2-oxo-1,2-dihydroquinolin-5-yl)ethyl)amino)hexyl)oxy)benzoyl)-3-phenylazetidine-3-carboxylate] | < 1 | < 1
COc1cc(C(=O)N2CCC(C(=O)O[C@H]3CN4CCC3CC4)(c3ccccc3)CC2)ccc1OCCCCCNC[C@H](O)c1ccc(O)c2[nH]c(=O)ccc12 [Compound 3, (R)-Quinuclidin-3-yl 1-(4-((5-(((R)-2-hydroxy-2-(8-hydroxy-2-oxo-1,2-dihydroquinolin-5-yl)ethyl)amino)pentyl)oxy)-3-methoxybenzoyl)-4-phenylpiperidine-4-carboxylate] | 1 to 10 | < 1
O=C(c1ccc(OCCCCCCNC[C@H](O)c2ccc(O)c3[nH]c(=O)ccc23)cc1)N1CC(C(=O)O[C@H]2CN3CCC2CC3)(c2ccc(F)cc2)C1 [Compound 3A, (R)-Quinuclidin-3-yl 3-(4-fluorophenyl)-1-(4-((6-(((R)-2-hydroxy-2-(8-hydroxy-2-oxo-1,2-dihydroquinolin-5-yl)ethyl)amino)hexyl)oxy)benzoyl)azetidine-3-carboxylate] | 1 to 10 | < 1
O=C(c1ccc(OCCCCCNC[C@H](O)c2ccc(O)c3[nH]c(=O)ccc23)c(Cl)c1)N1CCC(C(=O)O[C@H]2CN3CCC2CC3)(c2ccccc2)CC1 [Compound 4, (R)-Quinuclidin-3-yl 1-(4-((5-(((R)-2-hydroxy-2-(8-hydroxy-2-oxo-1,2-dihydroquinolin-5-yl)ethyl)amino)pentyl)oxy)-3-chlorobenzoyl)-4-phenylpiperidine-4-carboxylate] | 1 to 10 | < 1
O=C(c1cccc(OCCCCCNC[C@H](O)c2ccc(O)c3[nH]c(=O)ccc23)c1)N1CC(C(=O)O[C@H]2CN3CCC2CC3)(c2ccccc2)C1 [Compound 4A, (R)-Quinuclidin-3-yl 1-(3-((5-(((R)-2-hydroxy-2-(8-hydroxy-2-oxo-1,2-dihydroquinolin-5-yl)ethyl)amino)pentyl)oxy)benzoyl)-3-phenylazetidine-3-carboxylate] | 1 to 10 | < 1
O=C(c1cc(Cl)c(OCCCCCNC[C@H](O)c2ccc(O)c3[nH]c(=O)ccc23)c(Cl)c1)N1CCC(C(=O)O[C@H]2CN3CCC2CC3)(c2ccccc2)CC1 [Compound 5, (R)-Quinuclidin-3-yl 1-(3,5-dichloro-4-((5-(((R)-2-hydroxy-2-(8-hydroxy-2-oxo-1,2-dihydroquinolin-5-yl)ethyl)amino)pentyl)oxy)benzoyl)-4-phenylpiperidine-4-carboxylate] | 1 to 10 | 1 to 10
O=C(CCc1ccc(OCCCCCNC[C@H](O)c2ccc(O)c3[nH]c(=O)ccc23)cc1)N1CC(C(=O)O[C@H]2CN3CCC2CC3)(c2ccccc2)C1 [Compound 5A, (R)-Quinuclidin-3-yl 1-(3-(4-((5-(((R)-2-hydroxy-2-(8-hydroxy-2-oxo-1,2-dihydroquinolin-5-yl)ethyl)amino)pentyl)oxy)phenyl)propanoyl)-3-phenylazetidine-3-carboxylate] | 1 to 10 | < 1
O=C(c1ccc(OCCCCCNC[C@H](O)c2ccc(O)c3[nH]c(=O)ccc23)c(-c2ccsc2)c1)N1CCC(C(=O)O[C@H]2CN3CCC2CC3)(c2ccccc2)CC1 [Compound 6, (R)-Quinuclidin-3-yl 1-(4-((5-(((R)-2-hydroxy-2-(8-hydroxy-2-oxo-1,2-dihydroquinolin-5-yl)ethyl)amino)pentyl)oxy)-3-(thiophen-3-yl)benzoyl)-4-phenylpiperidine-4-carboxylate] | > 10 | < 1
O=C(Cc1ccc(OCCCCCNC[C@H](O)c2ccc(O)c3[nH]c(=O)ccc23)cc1)N1CC(C(=O)O[C@H]2CN3CCC2CC3)(c2ccccc2)C1 [Compound 6A, (R)-Quinuclidin-3-yl 1-(2-(4-((5-(((R)-2-hydroxy-2-(8-hydroxy-2-oxo-1,2-dihydroquinolin-5-yl)ethyl)amino)pentyl)oxy)phenyl)acetyl)-3-phenylazetidine-3-carboxylate] | 1 to 10 | < 1
O=C(CCc1ccc(OCCCCCNC[C@H](O)c2ccc(O)c3[nH]c(=O)ccc23)cc1)N1CCC(C(=O)O[C@H]2CN3CCC2CC3)(c2ccccc2)CC1 [Compound 7, (R)-Quinuclidin-3-yl 1-(3-(4-((5-(((R)-2-hydroxy-2-(8-hydroxy-2-oxo-1,2-dihydroquinolin-5-yl)ethyl)amino)pentyl)oxy)phenyl)propanoyl)-4-phenylpiperidine-4-carboxylate] | < 1 | < 1
O=C(c1ccc(OCc2cccc(OCCCCNC[C@H](O)c3ccc(O)c4[nH]c(=O)ccc34)c2)cc1)N1CC(C(=O)O[C@H]2CN3CCC2CC3)(c2ccccc2)C1 [Compound 7A, (R)-Quinuclidin-3-yl 1-(4-((3-(4-(((R)-2-hydroxy-2-(8-hydroxy-2-oxo-1,2-dihydroquinolin-5-yl)ethyl)amino)butoxy)benzyl)oxy)benzoyl)-3-phenylazetidine-3-carboxylate] | 1 to 10 | < 1
O=C(Cc1ccc(OCCCCCNC[C@H](O)c2ccc(O)c3[nH]c(=O)ccc23)cc1)N1CCC(C(=O)O[C@H]2CN3CCC2CC3)(c2ccccc2)CC1 [Compound 8, (R)-Quinuclidin-3-yl 1-(2-(4-((5-(((R)-2-hydroxy-2-(8-hydroxy-2-oxo-1,2-dihydroquinolin-5-yl)ethyl)amino)pentyl)oxy)phenyl)acetyl)-4-phenylpiperidine-4-carboxylate] | < 1 | < 1
O=C(c1ccc(OCc2ccc(CNC[C@H](O)c3ccc(O)c4[nH]c(=O)ccc34)cc2)cc1)N1CC(C(=O)O[C@H]2CN3CCC2CC3)(c2ccccc2)C1 [Compound 8A, (R)-Quinuclidin-3-yl 1-(4-((4-((((R)-2-hydroxy-2-(8-hydroxy-2-oxo-1,2-dihydroquinolin-5-yl)ethyl)amino)methyl)benzyl)oxy)benzoyl)-3-phenylazetidine-3-carboxylate] | < 1 | < 1
O=C(c1ccc(OCCCCCNC[C@H](O)c2ccc(O)c3[nH]c(=O)ccc23)c(F)c1)N1CCC(C(=O)O[C@H]2CN3CCC2CC3)(c2ccccc2)CC1 [Compound 9, (R)-Quinuclidin-3-yl 1-(3-fluoro-4-((5-(((R)-2-hydroxy-2-(8-hydroxy-2-oxo-1,2-dihydroquinolin-5-yl)ethyl)amino)pentyl)oxy)benzoyl)-4-phenylpiperidine-4-carboxylate] | 1 to 10 | > 10
O=C(NCc1ccc(CNC[C@H](O)c2ccc(O)c3[nH]c(=O)ccc23)cc1)c1ccc(C(=O)N2CC(C(=O)O[C@H]3CN4CCC3CC4)(c3ccccc3)C2)cc1 [Compound 9A, (R)-Quinuclidin-3-yl 1-(4-((4-((((R)-2-hydroxy-2-(8-hydroxy-2-oxo-1,2-dihydroquinolin-5-yl)ethyl)amino)methyl)benzyl)carbamoyl)benzoyl)-3-phenylazetidine-3-carboxylate] | < 1 | 1 to 10
Cc1cc(C(=O)N2CCC(C(=O)O[C@H]3CN4CCC3CC4)(c3ccccc3)CC2)ccc1OCCCCCNC[C@H](O)c1ccc(O)c2[nH]c(=O)ccc12 [Compound 10, (R)-Quinuclidin-3-yl 1-(4-((5-(((R)-2-hydroxy-2-(8-hydroxy-2-oxo-1,2-dihydroquinolin-5-yl)ethyl)amino)pentyl)oxy)-3-methylbenzoyl)-4-phenylpiperidine-4-carboxylate] | 1 to 10 | < 1
